Tested on: 519858-162-T-J1-PDC complex spheroid viability
Test: Anticancer human tumor 519858-162-T-J1-PDC patient-derived colon adenocarcinoma cell line growth inhibition [GQUAD]
Settings: for IC50: curve of first compound; for viability, T/C: stronger effect = lower value
Excerpt: DNA G-quadruplex Stabilizer Agents in Combinations in Complex Spheroids
A high-throughput screen of multi-cell type tumor spheroids was designed to identify active combinations of DNA G-quadruplex stabilizer agents and targeted small molecules. Complex spheroids include a stromal component modeled by human endothelial cells (HUVEC) and fibroblasts modeled by human mesenchymal stem cells (MSCs). The concentration ranges selected for each drug and investigational agent were based upon clinically achievable concentrations if the clinical Cmax of the agent was known.
Compounds. The drugs and investigational agents: pidnarulex (CX-5461; NSC782164), APTO-253 (NSC789042), BRACO-19 (NSC847499), peposertib (NSC802822), ceralasertib (NSC780249), elimusertib (NSC800525), camonsertib (NSC841442), AZD-1390 (NSC803789), olaparib (NSC753686), talazoparib (NSC767125), ART-558 (NSC835418), sotorasib (NSC818433), MRTX-1133 (NSC836407), SN-38 (NSC673596), topotecan (NSC609699), etoposide (NSC141540), doxorubicin (NSC123127), gemcitabine (NSC613327), 5-fluorouracil (NSC19893), paclitaxel (NSC125973), vemurafenib (NSC761431), panobinostat (NSC761190), R-306465 (JNJ-16241199; NSC773264), adavosertib (NSC754352), TP-3654 (NSC805149), carboplatin (NSC241240), KSQ-4279 (NSC840948), and staurosporine (NSC755774) were obtained from the National Cancer Institute (NCI) Developmental Therapeutics Program Chemical Repository (34). The FDA-approved anticancer drug set is available from the NCI Developmental Therapeutics Program. […] The stock solutions were prepared in dimethyl sulfoxide (DMSO, Sigma-Aldrich, St. Louis, MO, cat. D2650) at 800-fold the tested concentration and stored at -70 degrees C prior to their use. All drugs and investigational agents were tested over a range starting from a high concentration at or near the clinical Cmax and decreasing in half-log increments. If the clinical Cmax for an agent had not been determined, the highest concentration tested was 10 microM.
2.3 Cell Culture. All cells were maintained in an incubator at 37 degrees C and 5% CO2 with 95% humidity. The PDC lines were cultured according to standard operating procedures established by the NCI PDMR. All PDCs were thawed and cultured in Matrigel-coated flasks prepared with a working solution of 1X Ham's F-12 nutrient mix, without supplementation (Invitrogen, cat. 11765054), 100 U/mL penicillin-streptomycin (Invitrogen, cat. 15140122), and 2.5% Matrigel (Corning Inc., cat. 354248) for the first three passages. The 857933-349-R-J2-PDC line was cultured in 6C/Colon 1B media, which includes advanced DMEM/F-12 (Thermo Fisher Scientific, cat. 12634028), 10 mM HEPES (Thermo Fisher Scientific, cat. 15630080), 1X GlutaMAX supplement (Thermo Fisher Scientific, cat. 35050061), 0.1 mg/mL primocin (InvivoGen, cat. ant-pm-2), 10% defined fetal bovine serum, heat inactivated (HyClone Laboratories Inc., cat. SH30070.03HI), 50% L-WRN conditioned media (ATCC, cat. CRL-3276), 1.25 mM N-Acetyl-L-cysteine (Sigma-Aldrich, cat. A9165), 10 mM nicotinamide (Sigma-Aldrich, cat. N0636), 1X B-27 supplement (Thermo Fisher Scientific, cat. 17504044), 1X N-2 supplement (Thermo Fisher Scientific, cat. 17502048), 10 microM Y-27632 dihydrochloride (Tocris Bioscience, cat. 1254), and 50 ng/mL human EGF recombinant protein (Thermo Fisher Scientific, cat. PHG0311). The 485176-168-R4-J1-PDC line was cultured in Panc media, which includes all 6C/Colon 1B media components plus 100 ng/mL human FGF-10 (Thermo Fisher Scientific, cat. 100-26), 500 nM SB-431542 (Selleckchem, cat. S1067), and gastrin (Tocris, cat. 3006).
[…]
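Also: spheroids exposed to compounds for 7 days.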
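For viability, T/C in this document: 100% = DMSO vehicle control viability.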

`CC[C@@]1(O)C(=O)OCc2c1cc1n(c2=O)Cc2cc3c(CN(C)C)c(O)ccc3nc2-1` + Cc1[nH]c2ccc(F)cc2c1-c1nc2c3cccnc3c3ncccc3c2[nH]1 was tested. Which IC50 (second compound 0.0316 µM) did it give?
The IC50 was greater than 316 nM.

And the IC50 (second compound 0.1 µM)?
Its IC50 is greater than 316 nM.

What about the IC50 (second compound 0.316 µM) of the same compound?
The IC50 was greater than 316 nM.

And the IC50 (second compound 1 µM)?
The IC50 was greater than 316 nM.

And the IC50 (second compound 3.16 µM)?
Its IC50 is 0.999 nM.

And the IC50 (second compound 10 µM)?
The IC50 was greater than 316 nM.

What about the viability, T/C (second compound 0.0316 µM, first compound 0.000999 µM) of the same compound?
Its viability, T/C is 119%.

And the viability, T/C (second compound 0.0316 µM, first compound 0.00316 µM)?
Its viability, T/C is 106%.

What about the viability, T/C (second compound 0.0316 µM, first compound 0.00999 µM) of the same compound?
Its viability, T/C is 103%.

What about the viability, T/C (second compound 0.0316 µM, first compound 0.0316 µM) of the same compound?
The viability, T/C was 76.5%.

And the viability, T/C (second compound 0.0316 µM, first compound 0.0999 µM)?
Its viability, T/C is 72.1%.

And the viability, T/C (second compound 0.0316 µM, first compound 0.316 µM)?
Its viability, T/C is 88.9%.

What about the viability, T/C (second compound 0.1 µM, first compound 0.000999 µM) of the same compound?
Its viability, T/C is 86%.

What about the viability, T/C (second compound 0.1 µM, first compound 0.00316 µM) of the same compound?
Its viability, T/C is 90.9%.

And the viability, T/C (second compound 0.1 µM, first compound 0.00999 µM)?
Its viability, T/C is 94.3%.

What about the viability, T/C (second compound 0.1 µM, first compound 0.0316 µM) of the same compound?
The viability, T/C was 88.9%.

What about the viability, T/C (second compound 0.1 µM, first compound 0.0999 µM) of the same compound?
Its viability, T/C is 73.2%.

What about the viability, T/C (second compound 0.1 µM, first compound 0.316 µM) of the same compound?
The viability, T/C was 75.5%.

And the viability, T/C (second compound 0.316 µM, first compound 0.000999 µM)?
The viability, T/C was 58.7%.

What about the viability, T/C (second compound 0.316 µM, first compound 0.00316 µM) of the same compound?
Its viability, T/C is 97.1%.

And the viability, T/C (second compound 0.316 µM, first compound 0.00999 µM)?
The viability, T/C was 99.3%.

And the viability, T/C (second compound 0.316 µM, first compound 0.0316 µM)?
The viability, T/C was 93.8%.

And the viability, T/C (second compound 0.316 µM, first compound 0.0999 µM)?
The viability, T/C was 97.2%.

And the viability, T/C (second compound 0.316 µM, first compound 0.316 µM)?
Its viability, T/C is 69.4%.

What about the viability, T/C (second compound 1 µM, first compound 0.000999 µM) of the same compound?
Its viability, T/C is 86%.

What about the viability, T/C (second compound 1 µM, first compound 0.00316 µM) of the same compound?
Its viability, T/C is 60.9%.

What about the viability, T/C (second compound 1 µM, first compound 0.00999 µM) of the same compound?
Its viability, T/C is 85.1%.

And the viability, T/C (second compound 1 µM, first compound 0.0316 µM)?
Its viability, T/C is 104%.

And the viability, T/C (second compound 1 µM, first compound 0.0999 µM)?
Its viability, T/C is 69.7%.

What about the viability, T/C (second compound 1 µM, first compound 0.316 µM) of the same compound?
The viability, T/C was 75.9%.

What about the viability, T/C (second compound 3.16 µM, first compound 0.000999 µM) of the same compound?
Its viability, T/C is 56.4%.

What about the viability, T/C (second compound 3.16 µM, first compound 0.00316 µM) of the same compound?
The viability, T/C was 55.6%.

What about the viability, T/C (second compound 3.16 µM, first compound 0.00999 µM) of the same compound?
Its viability, T/C is 46.5%.

And the viability, T/C (second compound 3.16 µM, first compound 0.0316 µM)?
Its viability, T/C is 48.6%.

And the viability, T/C (second compound 3.16 µM, first compound 0.0999 µM)?
The viability, T/C was 78.1%.

And the viability, T/C (second compound 3.16 µM, first compound 0.316 µM)?
Its viability, T/C is 77.1%.

What about the viability, T/C (second compound 10 µM, first compound 0.000999 µM) of the same compound?
Its viability, T/C is 60%.

What about the viability, T/C (second compound 10 µM, first compound 0.00316 µM) of the same compound?
Its viability, T/C is 58.3%.

What about the viability, T/C (second compound 10 µM, first compound 0.00999 µM) of the same compound?
The viability, T/C was 50.7%.

And the viability, T/C (second compound 10 µM, first compound 0.0316 µM)?
The viability, T/C was 60.9%.

And the viability, T/C (second compound 10 µM, first compound 0.0999 µM)?
Its viability, T/C is 85.3%.

And the viability, T/C (second compound 10 µM, first compound 0.316 µM)?
Its viability, T/C is 60%.

— PubChem BioAssay AID2060507 (Molecular Pharmacology Branch, DTP, NCI, 2025)
